# Measurements reported in patent US8598383B2, “Pharmaceutical composition for treating or preventing degenerative and inflammatory diseases” (Neurotech Pharmaceuticals Co., Ltd., priority 2006, dated 2013).
# Legend:
# [1] = tested on: TNF-α, IL-1β and IL-6 in brain; test: Cytokines in brain of APP/PS1 dementia mice (ELISA); assay type: in vivo, mouse; settings: 25 mg/kg/day in chow for 7 months, vs APP/PS1 fed general chow
# Description: FIG. 25 are graphs showing the levels of TNF-α, IL-1β or IL-6 in brain of 10.5 month-old APP/PS1 dementia mouse (Tg+). The levels were evaluated by ELISA method.
# After administration of drug for 7 months, the levels of TNF-α, IL-1β and IL-6 were quantified by ELISA (mean±SEM, n=3-5). Significant difference from control (APP/PS1 mouse fed with general chow only), p<0.05 using one-way ANOVA according to Student-Neuman-Keuls' test.
# [2] = tested on: IL-6 production in BV2 cell line; test: Suppressing effect on production of cytokine (ELISA), IL-6; assay type: cell-based; settings: Mus musculus, BV-2, level in medium, LPS + 100 uM of sample, 24 hours
# Description: Effects of the 2-hydroxybenzoic acid derivatives on production of cytokine in BV2 cell line were evaluated. 24-well plate was inoculated with 1×10^6 cells of BV2 cell line, and treated with both LPS, inflammation-inducing material, and 100 uM of sample (the 2-hydroxybenzoic acid derivative or comparative drug), together. After 24 hours of incubation, culture medium was collected. The levels of cytokines, TNF-α and IL-6, in the medium were evaluated by ELISA method.
compound,measurement,setting,value
"O=C(O)c1cc(NCCc2ccc(C(F)(F)F)cc2)ccc1O [compound 2, 2-hydroxy-5-[2-(4-trifluoromethyl-phenyl)-ethylamino]-benzoic acid]","levels of TNF-α, IL-1β and IL-6 in brain",[1],"significantly reduced the levels of TNF-α, IL-β and IL-6"
same,inhibition at 100 µM,[2],70.3%
